Our source for the TGI and GI50 values is PubChem BioAssay (NCI).

Each structure is given as a SMILES string.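 Where inhibition never reached the appropriate level, the endpoint shown equals the highest concentration tested. Otherwise, values were interpolated linearly from a five-concentration, 48-hour dose response in 96-well plates. GI50 marks 50% less growth. TGI: total growth inhibition.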

Some test systems named below: SNB-19 CNS; OVCAR-8 ovarian; SR leukemia; A498 renal; SF-295 CNS; NCI-H460 lung; SF-539 CNS; HCC-2998 colon; MALME-3M melanoma.
Common to all, as to assay: inhibition of tumour cell growth, NCI panel, 48 h

Regarding `O=C1/C(=C/c2cccs2)NC(=S)N1CN1CCOCC1`, the TGI in the experiment with SNB-19 CNS, in the experiment with OVCAR-8 ovarian, in the experiment with SR leukemia, in the experiment with A498 renal and in the experiment on SF-295 CNS was above 100 µM in each case.

For the compound `COc1cc2c(cc1OC)C(Cc1ccccc1CCCl)=NCC2`, the TGI was above 100 µM with NCI-H460 lung; above 100 µM with SNB-19 CNS; 48.6 µM with SF-539 CNS; above 100 µM in the experiment on HCC-2998 colon; above 100 µM with OVCAR-8 ovarian; above 100 µM in the experiment on SR leukemia. Besides, the TGI in the experiment on A498 renal and with SF-295 CNS was above 100 µM each time.

Consider `COc1cc2c3c(n(Cc4ccccc4)c(=O)c2cc1OC)-c1ccccc1C3=O`, for which the TGI in the experiment with NCI-H460 lung, in the experiment with MALME-3M melanoma, in the experiment on SNB-19 CNS, in the experiment with SF-539 CNS, in the experiment on HCC-2998 colon and in the experiment on OVCAR-8 ovarian was above 100 µM each time. Also, the TGI in the experiment with SR leukemia and in the experiment with SF-295 CNS was above 100 µM in each case.

As to `O=C(N/N=C\c1ccc([N+](=O)[O-])cc1)c1ccccc1Nc1ccccc1C(=O)N/N=C/c1ccc([N+](=O)[O-])cc1`, the TGI in the experiment with NCI-H460 lung, in the experiment on MALME-3M melanoma, in the experiment on SNB-19 CNS, with HCC-2998 colon, in the experiment on OVCAR-8 ovarian and with SR leukemia was above 100 µM in each case. The TGI with A498 renal and in the experiment with SF-295 CNS was above 100 µM throughout.

On to `C=Cc1cc2c(cc1O)CC[C@@H]1[C@@H]2CC[C@]2(C)[C@@H](O)CC[C@@H]12`, for which the TGI with NCI-H460 lung was 21.1 µM; with MALME-3M melanoma it was 10.4 µM; with SNB-19 CNS, 13.6 µM; in the experiment with SF-539 CNS, 5.53 µM; in the experiment with HCC-2998 colon, 25.4 µM; in the experiment on SR leukemia it was 8.4 µM. Moreover, the values for the TGI with A498 renal and in the experiment with SF-295 CNS were 39.1 µM and 10.5 µM, respectively.

On to `CCOC(=O)C(C)(C)/C=C\C(Cl)=C(Cl)Cl`, for which the TGI in the experiment on MALME-3M melanoma, with SNB-19 CNS, with SF-539 CNS, in the experiment on HCC-2998 colon, with OVCAR-8 ovarian and with SR leukemia was above 100 µM each time. Moreover, in the experiment with SF-295 CNS, the TGI was above 100 µM.

`O=c1c(O)c(-c2cc(O)c(O)cc2O)oc2cc(O)c(C3OC(CO)C(O)C(O)C3O)c(O)c12` (stereo unspecified): the TGI in the experiment on NCI-H460 lung, in the experiment with SNB-19 CNS, with SF-539 CNS, in the experiment with OVCAR-8 ovarian, with SR leukemia and in the experiment on A498 renal was above 100 µM throughout. Moreover, the TGI with SF-295 CNS was above 100 µM.

For the compound `O=S(=O)(O)c1ccc2c(N=Nc3ccccc3Cl)c(O)ccc2c1`, the TGI in the experiment with MALME-3M melanoma, with SNB-19 CNS, in the experiment on OVCAR-8 ovarian, in the experiment on SR leukemia, in the experiment with A498 renal and in the experiment on SF-295 CNS was above 100 µM in each case.

With `COC(=O)c1cc2c3c(cc(O)c2[nH]1)N(C(=O)C1Cc2cc(OC)c(OC)c(OC)c2N1)CC3CCl` (stereo unspecified), the GI50 in the experiment with NCI-H460 lung, in the experiment with SNB-19 CNS, in the experiment with SF-539 CNS, with HCC-2998 colon, with OVCAR-8 ovarian and with SR leukemia was below 0.01 µM throughout. The GI50 with A498 renal and in the experiment with SF-295 CNS was below 0.01 µM each time. In addition, the TGI in the experiment with NCI-H460 lung is 0.175 µM; with SNB-19 CNS, 1.05 µM; in the experiment with SF-539 CNS, below 0.01 µM; with HCC-2998 colon, 0.113 µM; with OVCAR-8 ovarian, 0.014 µM; in the experiment with SR leukemia, above 100 µM. In addition, the TGI in the experiment with A498 renal and with SF-295 CNS was below 0.01 µM each time.

Regarding `Clc1ccc2c(NCCNc3ccnc4cc(Cl)ccc34)ccnc2c1`, the TGI in the experiment with NCI-H460 lung was 27 µM; with MALME-3M melanoma, above 100 µM; with SNB-19 CNS, 50.2 µM; with SF-539 CNS, 25.3 µM; with HCC-2998 colon, 28.5 µM; with OVCAR-8 ovarian, 43.1 µM. The TGI in the experiment with A498 renal was 32.2 µM; with SF-295 CNS, 26.2 µM.

As to `CCOC(=O)COc1c(OC)cc(C2C3=C(COC3=O)Oc3cc4c(cc32)OCO4)cc1OC` (stereo unspecified), the TGI with NCI-H460 lung is 49.4 µM; in the experiment on MALME-3M melanoma, above 100 µM; with SNB-19 CNS it was above 100 µM; with SF-539 CNS, 43 µM; with HCC-2998 colon, 30.7 µM; in the experiment with OVCAR-8 ovarian, 47 µM. The values for the TGI in the experiment with SR leukemia and with SF-295 CNS were 27.1 µM and above 26.3 µM, respectively.

As for `COc1ccc(N=C2C(=Nc3ccc(OC)cc3)N(S(=O)(=O)c3ccccc3)C(=S)N2c2ccc(OC)cc2)cc1`, the TGI with SNB-19 CNS, with SF-539 CNS, in the experiment on HCC-2998 colon, with OVCAR-8 ovarian, with SR leukemia and with SF-295 CNS was above 100 µM each time.

For the compound `O=C1OC(C2OC(=O)c3cc(O)c(O)c(O)c3-c3c(O)c(O)c4oc(=O)c5c(c(O)c(O)c6oc(=O)c3c4c65)-c3c(cc(O)c(O)c3O)C(=O)OCC2O)C2OC(=O)c3c(c(O)c(O)c(O)c3[C@H]2O)-c2c1cc(O)c(O)c2O` (stereo partly specified), the TGI with NCI-H460 lung is above 100 µM; in the experiment on MALME-3M melanoma, above 100 µM; in the experiment on SNB-19 CNS, above 100 µM; in the experiment on HCC-2998 colon, above 100 µM; in the experiment on OVCAR-8 ovarian, 47.7 µM; with SR leukemia it was 43.4 µM. Further, the TGI in the experiment with A498 renal is above 100 µM; in the experiment with SF-295 CNS, 68.5 µM.

As to `CCOC(=O)/C=C(\N=P(c1ccccc1)(c1ccccc1)c1ccccc1)C(F)(F)C(F)(F)C(F)(F)C(F)(F)C(F)(F)F`, the TGI in the experiment with NCI-H460 lung, in the experiment on MALME-3M melanoma, in the experiment on SNB-19 CNS, in the experiment with SF-539 CNS, in the experiment on HCC-2998 colon and in the experiment on SR leukemia was above 100 µM in each case. Besides, the TGI in the experiment with A498 renal was 72.4 µM; in the experiment with SF-295 CNS, above 100 µM.

For `COc1ccc(CCCC(=O)O)c(C)c1`, the TGI in the experiment with NCI-H460 lung is above 100 µM; in the experiment on MALME-3M melanoma, above 100 µM; in the experiment with SNB-19 CNS it was above 100 µM; in the experiment with OVCAR-8 ovarian it was above 100 µM; in the experiment on SR leukemia, above 100 µM; with A498 renal, 52.6 µM. Further, the TGI with SF-295 CNS is above 100 µM.

Take `CC1(C)C[C@H](O)[C@H](O)[C@]23C(=O)O[C@H](O)[C@H]2C(C=O)=CC[C@@H]13`: the TGI in the experiment with NCI-H460 lung, in the experiment on MALME-3M melanoma, in the experiment with SNB-19 CNS, with SF-539 CNS, in the experiment with HCC-2998 colon and with OVCAR-8 ovarian was above 100 µM throughout. Besides, the TGI in the experiment with SR leukemia and in the experiment with SF-295 CNS was above 100 µM each time.
